Measurements from US11505537B2, “Compositions comprising methylphenidate-prodrugs, processes of making and using the same” (KemPharm, Inc., priority 2016, dated 2022).
Structures can show the parent of a compound that is named as a salt. Where two headings read alike, the source gives them in different places.

Assays:
[1] = Oral PK in rats of d- and l-isomers (unconjugated MPH, L-Ser and L-Thr conjugates) at equimolar doses; settings: for d:l Ratio AUC / d:l Ratio Cmax / d:l Ratio Tmax: d-isomer vs l-isomer; for d:l Ratio AUC: mean AUC; for d:l Ratio Cmax: mean Cmax; for Cmax: equimolar doses
Procedure: In another embodiment, the following compounds were dosed orally in rats at equimolar doses: d-MPH.HCl, l-MPH.HCl, d-MPH-CO2CH2-nicotinoyl-L-Ser, l-MPH-CO2CH2-nicotinoyl-L-Ser, d-MPH-CO2CH2-nicotinoyl-L-Thr, and l-MPH-CO2CH2-nicotinoyl-L-Thr.

[2] = Human single-dose PK of 32 mg d-MPH-CO2CH2-nicotinoyl-L-Ser oral liquid, fasted; settings: single 32 mg oral liquid
Text: Twenty-four (24) healthy volunteers were enrolled in this open-label, single-dose, two-treatment, two-period PK trial.

[3] = Intranasal PK in rats, conjugate vs unconjugated d-methylphenidate; type: in vivo; settings: analyte d-methylphenidate
Procedure: (§1) The plasma concentrations of d-methylphenidate were measured by LC-MS/MS over time. The oral plasma concentrations of d-methylphenidate released from d-threo-MPH-CO2CH2-nicotinoyl-L-Ser were compared with unconjugated d-methylphenidate after oral administration in rats.
As shown in FIG. 5 and Table 10, after 4.75 mg conjugate was intranasally administered to rats, plasma concentrations of d-methylphenidate released from the conjugate are substantially flat from about 0 to about 1 hour following intranasal administration in a rat. […] Conjugated d-methylphenidate was about 6% AUC and 5% Cmax of unconjugated d-methylphenidate.

[4] = Intravenous PK in rats, conjugate vs unconjugated d-methylphenidate; type: in vivo; settings: analyte d-methylphenidate
[5] = Oral PK in rats, conjugate vs unconjugated d-methylphenidate (LC-MS/MS); type: in vivo; settings: analyte d-methylphenidate, […] d-MPH content, hydrochloride
Procedure: as §1
The human equivalent dose for the conjugate was 0.8 mg/kg as compared to 0.4 mg/kg for unconjugated d-methylphenidate.

[6] = Human single-dose PK of 60 mg d-MPH-CO2CH2-nicotinoyl-L-Ser chloride capsules, fasted and fed; type: in vivo; settings: for AUC(0-inf) / half-life / AUC(0-t) / Tmax / Cmax: both sexes, plasma, analyte d-MPH-CO2CH2-nicotinoyl-L-Ser; for Tmax: read-out: Tmax (median)
Procedure: A human study was conducted to evaluate the pharmacokinetics of d-MPH-CO2CH2-nicotinoyl-L-Ser and d-methylphenidate after oral administration of 60 mg d-MPH-CO2CH2-nicotinoyl-L-Ser chloride gelatin capsules in healthy volunteers under fasted and fed conditions. Fourteen (14) subjects were enrolled in this phase 1, open-label, single dose, two-period, randomized, crossover study. Eligible subjects included healthy male and female volunteers between the age of 18 and 55 years with a body mass index (BMI) between 18 and 32 kg/m^2 and a body weight between 50 and 100 kg at screening.
Two single-dose treatments were administered with a minimum 96-hour washout period between doses. Blood samples for pharmacokinetics were collected pre-dose and at 0.5, 0.75, 1, 1.5, 2, 2.5, 3, 3.5, 4.5, 6, 8, 10, 12, 16, 24, and 36 hours±5 minutes post-dose, in each treatment period.

[7] = Human single- and multiple-dose PK of d-MPH HCl/conjugate dose mixtures vs Concerta 54 mg, once daily for 7 days, fasted; type: in vivo
Text: Forty-eight (48) healthy volunteers (12 per treatment arm) were enrolled in this open-label, single- and multiple-dose, four-treatment, one-period parallel PK trial.
Eligible subjects included healthy male and female volunteers between the age of 18 and 55 years with a body mass index (BMI) between 18 and 32 kg/m^2 and a body weight between 60 and 100 kg at screening. The primary objective of the study was to assess the single and multiple dose pharmacokinetics of d-MPH-CO2CH2-nicotinoyl-L-Ser and d-methylphenidate following multiple doses of different combinations of d-methylphenidate HCl/d-MPH-CO2CH2-nicotinoyl-L-Ser Chloride administered orally once per day for 7 days in healthy volunteers under fasted conditions, compared to the same dosing regimen with a Concerta® tablet. After the 1st dose of study drug (Day 1), blood samples for PK were collected at pre-dose (0 hour; within 1 hour prior to dosing), and at 0.5, 1, 1.5, 2, 2.5, 3, 4.5, 6, 7, 7.5, 8, 8.5, 9, 10, 12, 13, and 24 hours±5 minutes post-dose. The 24-hr post-dose blood sample was taken before administration of the 2nd dose of study drug. After the 2nd, 3rd, 4th, 5th and 6th dose of study drug (Days 2-6), blood samples were collected at pre-dose (within 10 minutes prior to dosing), and at 1.5 and 8 hours±5 minutes post-dose. The pre-dose sample on Day 2 was the same as the 24-hour post-dose sample after the 1st dose. After the last dose (7th dose) of study drug (Day 7), blood samples for PK were collected at pre-dose (within 10 minutes prior to dosing), and at 0.5, 1, 1.5, 2, 2.5, 3, 4.5, 6, 7, 7.5, 8, 8.5, 9, 10, 12, 13, 24, 36, 48, 60 and 72 hours±5 minutes post-dose.

[8] = Solubility in IPA/IPAc inferred from recrystallization; type: physicochemical; settings: isopropylalcohol/isopropylacetate, from recrystallization yields
Text: In one embodiment, the conjugate d/l-MPH-CO2CH2-nicotinoyl-L-Ser was recrystallized from a mixture (1:1) of isopropylalcohol (IPA) and isopropylacetate (IPAc) yielding approximately 45.2% of product (purity of about 98% by HPLC). A similar amount of d-MPH-CO2CH2-nicotinoyl-L-Ser recrystallized from IPA and IPAc (2:1) yielded approximately 81.5% of product (purity of about 97.6% by HPLC).

In the case of `COC(=O)[C@H](c1ccccc1)[C@H]1CCCCN1C(=O)OC[n+]1cccc(C(=O)N[C@H](C(=O)O)[C@@H](C)O)c1.[Cl-]` [d-MPH-CO2CH2-nicotinoyl-L-Thr, 3-(((1S,2R)-1-carboxy-2-hydroxypropyl)carbamoyl)-1-(((R)-2-(2-(R)-methoxy-2-oxo-1-phenylethyl)piperidine-1-carbonyloxy)methyl)pyridium chloride], the “d:l Ratio AUC” value [1] was ~53% and the “d:l Ratio Cmax” value [1] was “about 58%”.

For `COC(=O)[C@H](c1ccccc1)[C@H]1CCCCN1C(=O)OC[n+]1cccc(C(=O)N[C@@H](CO)C(=O)O)c1` [d-MPH-CO2CH2-nicotinoyl-L-Ser, d-methylphenidate-CO2CH2-nicotinoyl-L-Ser], the “Plasma concentration of intact prodrug at 24 hours post dose” value [2] was “about 0” and the “Time until which plasma concentrations of intact prodrug increased” value ([2]; N=24) was “about 2 hours”.

With `COC(=O)C(c1ccccc1)C1CCCCN1C(=O)OC[n+]1cccc(C(=O)N[C@H](C(=O)[O-])[C@@H](C)O)c1` (stereo partly drawn) [MPH-CO2CH2-nicotinoyl-L-Thr] the “d:l Ratio Tmax” value [1] was 57%, the “d:l Ratio AUC” value [1] was 53% and the “d:l Ratio Cmax” value [1] was 58%.

In the case of `COC(=O)C(c1ccccc1)C1CCCCN1C(=O)OC[n+]1cccc(C(=O)N[C@@H](CO)C(=O)[O-])c1` (stereo partly drawn) [MPH-CO2CH2-nicotinoyl-L-Ser], the “d:l Ratio Tmax” value [1] was 182%, the “d:l Ratio AUC” value [1] was 73% and the “d:l Ratio Cmax” value [1] was 94%.

For `COC(=O)[C@H](c1ccccc1)[C@H]1CCCCN1.Cl` [d-MPH•HCl, (2R,2′R)-(+)-Methylphenidate hydrochloride], the AUC0-1 h [3] was 1110.8 ng·h/mL, the Cmax [3] was 2561.6 ng/mL and the Tmax [3] was 6 min. It also gave an AUC0-1 h [4] of 312.6 ng·h/mL, an AUC0-2 h [4] of 534.9 ng·h/mL and a Cmax [4] of 541.8 ng/mL. For the same compound, the Tmax [4] was 24 min, the Tmax [5] was 24 min and the Tmax ([5]; listed as unconjugated d-methylphenidate) was “about 0.4 h”. It also gave an AUC ([1]; analyte d-MPH) of 119.2 ng·h/mL, a Tmax ([1]; analyte d-MPH) of 24 min and a Cmax ([1]; analyte d-MPH) of 98.9 ng/mL. For the same compound, the “d:l Ratio AUC” value [1] was ~124% and the “d:l Ratio Cmax” value [1] was “about 192%”.

With `COC(=O)[C@H](c1ccccc1)[C@H]1CCCCN1C(=O)OC[n+]1cccc(C(=O)N[C@@H](CO)C(=O)O)c1.[Cl-]` [d-MPH-CO2CH2-nicotinoyl-L-Ser chloride, 3-((S)-1-carboxy-2-hydroxyethylcarbamoyl)-1-(((R)-2-(2-(R)-methoxy-2-oxo-1-phenylethyl)piperidine-1-carbonyloxy)methyl)pyridium chloride] the “peak d-MPH exposure in the fed state vs fasted” value ([6]; analyte d-MPH, single oral 60 mg) was “slightly higher”, the AUC(0-inf) ([6]; human, oral, 60 mg, Fasted) was 309 ng·h/mL and the half-life ([6]; human, oral, 60 mg, Fasted) was 350 min. It also gave an AUC(0-t) ([6]; human, oral, 60 mg, Fasted, read-out: AUC0-24 hr) of 300 ng·h/mL, an AUC(0-t) ([6]; human, oral, 60 mg, Fasted, read-out: AUC0-last) of 306 ng·h/mL and a Tmax ([6]; human, oral, 60 mg, Fasted) of 30 min. The AUC(0-inf) ([6]; human, oral, 60 mg, Fed) was 84.2 ng·h/mL, the Cmax ([6]; human, oral, 60 mg, Fed) was 10.2 ng/mL and the half-life ([6]; human, oral, 60 mg, Fed) was 366 min. It also gave an AUC(0-t) ([6]; human, oral, 60 mg, Fed, read-out: AUC0-24 hr) of 77.9 ng·h/mL, an AUC(0-t) ([6]; human, oral, 60 mg, Fed, read-out: AUC0-last) of 81.1 ng·h/mL and a Tmax ([6]; human, oral, 60 mg, Fed) of 180 min. The Cmax ([6]; Fasted, single oral 60 mg, human adults) was 75.6 ng/mL, the concentration at 24 h ([7]; both sexes, human, plasma, oral dose mixtures, adult humans, FIGS. 14-25, read-out: Plasma concentration of intact d-MPH-CO2CH2-nicotinoyl-L-Ser chloride at 24 hours post dose) was < 1 ng/mL and the “Accumulation of intact d-MPH-CO2CH2-nicotinoyl-L-Ser chloride in the bloodstream after the 7th dose” value ([7]; dose 1 vs dose 7 plasma concentrations at 24 hours) was “negligible”. The “Time until which plasma concentrations of intact d-MPH-CO2CH2-nicotinoyl-L-Ser chloride increased” value ([7]; oral dose mixtures, adult humans, FIGS. 14-25) was “about 2 hours”.

With `COC(=O)[C@@H](c1ccccc1)[C@@H]1CCCCN1C(=O)OC[n+]1cccc(C(=O)N[C@@H](CO)C(=O)[O-])c1` [l-MPH-CO2CH2-nicotinoyl-L-Ser] the “solubility in IPA/IPAc compared to d-MPH-CO2CH2-nicotinoyl-L-Ser” value [8] was “significantly higher”.

`COC(=O)[C@@H](c1ccccc1)[C@@H]1CCCCN1` [l-MPH•HCl] gave an AUC ([1]; analyte l-MPH) of 96.4 ng·h/mL, a Tmax ([1]; analyte l-MPH) of 42 min and a Cmax ([1]; analyte l-MPH) of 51.5 ng/mL.

With `COC(=O)C(c1ccccc1)C1CCCCN1` (stereo not drawn) [unconjugated MPH, methyl 2-phenyl-2-(piperidin-2-yl)acetate] the “d:l Ratio Tmax” value [1] was 62%.
